# According to patent publication US20230233543A1, “COMPOUNDS FOR THE TREATMENT OF COVID-19” (Dompe' Farmaceutici SPA, priority 2020, published 2023):
# Structures can show the parent of a compound that is named as a salt. Where two headings read alike, the source gives them in different places.
# Assays:
# [1] = system: SARS-CoV-2 (BetaCov/Belgium/GHB-03021/2020) in VeroE6-EGFP cells; test: microbe, parasite or virus in culture; assay type: cell-based; conditions: for IC50: Severe acute respiratory syndrome coronavirus 2
# SARS-CoV-2 3CL-Pro = SARS-CoV-2 3CL-Pro (Severe acute respiratory syndrome coronavirus 2, UniProt P0DTD1); test: biochemical; conditions: read-out: 3CL-Pro Inhibition [%]
# SARS-CoV-2 PLpro = SARS-CoV-2 PLpro (Severe acute respiratory syndrome coronavirus 2, UniProt P0DTD1); test: PLpro enzymatic assay (ISG15-AMC substrate); assay type: biochemical; conditions: read-out: PL_Pro Inhibition [%]
SMILES,% Confluence [1],% Inhibition [1],IC50 ([1]; read-out: IC50),IC50 [1],inhibition at 20 µM (SARS-CoV-2 3CL-Pro),inhibition at 20 µM (SARS-CoV-2 PLpro),"inhibition at 20 µM (SARS-CoV-2 3CL-Pro; primary screen at 20 µM, without DTT, read at 15 min, normalized to zinc pyrithione (100%) and DMSO (0%))"
"c1ccc2c(c1)Sc1ccccc1N2C[C@H]1CN2CCC1CC2 (stereo in doubt) [Mequitazine, 10-(Quinuclidin-3-ylmethyl)-10H-phenothiazine]",61.74%,62.09%,5.99 µM,–,–,–,–
"Cc1cc(O)c2c(=O)c3c(O)cc(O)c4c5c(O)cc(O)c6c(=O)c7c(O)cc(C)c8c1c2c(c34)c(c78)c65 [Hypericin, 1,3,4,6,8,13-Hexahydroxy-10,11-dimethylphenanthro[1,10,9,8-opqra]perylene-7,14-dione]",20.85%,–,–,0.25 µM,45.7%,40.1%,–
"CC(C)c1ccc2c(c1)C(N1CCN(CCO)CC1)Cc1ccc(F)cc1S2 (centres unmarked) [Isofloxythepin, 2-[4-(9-fluoro-3-propan-2-yl-5,6-dihydrobenzo[b][1]benzothiepin-5-yl)piperazin-1-yl]ethanol]",67.67%,35.39%,106 µM,–,–,–,–
"CC(C)(C)NCc1ccc(Nc2ccnc3cc(Cl)ccc23)cc1O [N-tert-Butylisoquine, 2-[(tert-butylamino)methyl]-5-[(7-chloroquinolin-4-yl)amino]phenol]",77.86%,44.99%,–,–,–,–,–
"Nc1ccc2cc3ccc(N)cc3nc2c1 [Proflavine, 3,6-diaminoacridine]",8.56%,208.4%,–,–,–,–,89.9%
"O=C(c1ccc(OCCN2CCCCC2)cc1)c1c(-c2ccc(O)cc2)sc2cc(O)ccc12 [Raloxifen hydrochloride, 1-[6-Hydroxy-2-(4-hydroxyphenyl)benzo[b]thien-3-yl]-1-[4-[2-(1-piperidinyl)ethoxy]phenyl]methanone]",45.26%,70.75%,9.78 µM,–,–,–,–
"CC(C)(Sc1cc(C(C)(C)C)c(O)c(C(C)(C)C)c1)Sc1cc(C(C)(C)C)c(OC(=O)CCC(=O)O)c(C(C)(C)C)c1 [Succinobucol, Succinic acid 2,6-di-tert-butyl-4-[1-(3,5-di-tert-butyl-4-hydroxyphenylsulfanyl)-1-methylethylsulfanyl]phenyl monoester]",18.73%,37.53%,–,–,–,–,–
